Results from US8415469B2, “Compounds and methods for kinase modulation, and indications therefor” (Plexxikon Inc., priority 2005, dated 2013).
pIC50: −log10 of the molar value.

Experiments:
Type in all cases: biochemical
Jnk3 = biological target: T1, Jnk3 (Homo sapiens, UniProt P53779); experiment: AlphaScreen kinase assay, Jnk3; conditions: read-out: IC50, activity toward kinase Jnk3
T1 construct: purchased Upstate Biotechnology

Pyk2 = biological target: T2, Pyk2 (Homo sapiens, UniProt Q14289); experiment: AlphaScreen kinase assay, Pyk2; conditions: read-out: IC50, activity toward kinase Pyk2
T2 construct: purchased Upstate Biotechnology

B-Raf = biological target: T3, B-Raf (Homo sapiens, UniProt P15056); experiment: AlphaScreen kinase assay, B-Raf; conditions: read-out: IC50, activity toward kinase B-Raf
T3 construct: purchased Upstate Biotechnology

B-Raf V600E = biological target: T4, B-Raf V600E (Homo sapiens, UniProt P15056, V600E); experiment: AlphaScreen kinase assay, B-Raf V600E; conditions: read-out: IC50, activity toward kinase B-Raf V600E
T4 construct: P4254. pFastBacBD-CDC37 BRAF D437-K722-X, V600E; His6 with pFastBac HT leader (TEV site) (N); made in house; host or cells: Sf9 (baculovirus; chaperone CDC37 co-expressed)

c-Raf-1 = biological target: T5, c-Raf-1 (Homo sapiens, UniProt P04049); experiment: AlphaScreen kinase assay, c-Raf-1; conditions: read-out: IC50, activity toward kinase c-Raf-1
T5 construct: purchased Upstate Biotechnology

Fak = biological target: T6, Fak (Homo sapiens, UniProt Q05397); experiment: AlphaScreen kinase assay, Fak; conditions: read-out: IC50, activity toward kinase Fak
T6 construct: P1358.pFastBacHtb FAK S411-Q686-X; His6 with pFastBacHTb leader (TEV site) (N); made in house; host or cells: Sf9 (baculovirus)

FGFR1 = biological target: T7, FGFR1 (Homo sapiens, UniProt P11362, C488A/C584S); experiment: AlphaScreen kinase assay, FGFR1; conditions: read-out: IC50, activity toward kinase FGFR
T7 construct: P1351.pET N6 BI-PTP FGFR A458-E765-X C488A, C584S; made in house; host or cells: E. coli (PTP1B co-expressed)

Flt1 = biological target: T8, Flt1 (Homo sapiens, UniProt P17948); experiment: AlphaScreen kinase assay, Flt1; conditions: read-out: IC50, activity toward kinase Flt1
T8 construct: P1826.pETN6 BI-PTP FLT1 M799-D1165-X WT; His6 (N); made in house; host or cells: E. coli (PTP1B co-expressed)
T8 sequence (P17948 with tags, fused parts or gaps): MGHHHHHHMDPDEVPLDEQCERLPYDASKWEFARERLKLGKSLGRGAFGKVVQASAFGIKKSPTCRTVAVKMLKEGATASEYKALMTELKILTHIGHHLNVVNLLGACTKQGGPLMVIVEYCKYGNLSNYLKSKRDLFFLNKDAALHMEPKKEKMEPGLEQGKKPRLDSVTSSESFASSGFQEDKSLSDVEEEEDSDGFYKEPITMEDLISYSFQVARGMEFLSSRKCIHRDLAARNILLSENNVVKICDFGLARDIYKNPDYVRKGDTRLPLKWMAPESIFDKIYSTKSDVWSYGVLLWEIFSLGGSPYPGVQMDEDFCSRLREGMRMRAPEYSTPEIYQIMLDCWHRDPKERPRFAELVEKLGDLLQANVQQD

Fms = biological target: T9, Fms (Homo sapiens, UniProt P07333); experiment: AlphaScreen kinase assay, Fms; conditions: read-out: IC50, activity toward kinase Fms
T9 construct: purchased Upstate Biotechnology

Jnk1 = biological target: T10, Jnk1 (Homo sapiens, UniProt P45983); experiment: AlphaScreen kinase assay, Jnk1; conditions: read-out: IC50, activity toward kinase Jnk1
T10 construct: purchased Upstate Biotechnology

Kit = biological target: T11, Kit (Homo sapiens, UniProt P10721); experiment: AlphaScreen kinase assay, Kit; conditions: read-out: IC50, activity toward kinase Kit
T11 construct: P1332.N6 BI PTP KIT M552-K948-X COD; His6 (N); made in house; host or cells: E. coli (PTP1B co-expressed)

Kdr = biological target: T12, Kdr (Homo sapiens, UniProt P35968); experiment: Z'-Lyte FRET kinase assay (Invitrogen), Kdr; conditions: read-out: IC50, activity toward kinase Kdr
T12 construct: purchased Invitrogen (assay run by Invitrogen)

Ret = biological target: T13, Ret (Homo sapiens, UniProt P07949); experiment: AlphaScreen kinase assay, Ret; conditions: read-out: IC50, activity toward kinase Ret
T13 construct: P1378.pET-SF BI-PTP RET H661-R1012 HIS; made in house
T13 sequence (P07949 with tags, fused parts or gaps): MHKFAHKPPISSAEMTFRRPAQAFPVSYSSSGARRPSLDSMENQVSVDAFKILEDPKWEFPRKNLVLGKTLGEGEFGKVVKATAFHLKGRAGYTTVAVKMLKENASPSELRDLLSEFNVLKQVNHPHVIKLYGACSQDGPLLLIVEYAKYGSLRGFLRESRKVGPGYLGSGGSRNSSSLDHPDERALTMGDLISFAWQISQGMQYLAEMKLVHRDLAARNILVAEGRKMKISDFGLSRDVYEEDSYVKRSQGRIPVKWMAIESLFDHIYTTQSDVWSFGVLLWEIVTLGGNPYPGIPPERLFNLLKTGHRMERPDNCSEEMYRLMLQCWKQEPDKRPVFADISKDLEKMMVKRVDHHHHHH

Src = biological target: T14, Src (Homo sapiens, UniProt P12931); experiment: AlphaScreen kinase assay, Src; conditions: read-out: IC50, activity toward kinase Src
T14 construct: P1144. pET-N6 BI-PTP SRC V86-L536-X; made in house
T14 sequence (P12931 with tags, fused parts or gaps): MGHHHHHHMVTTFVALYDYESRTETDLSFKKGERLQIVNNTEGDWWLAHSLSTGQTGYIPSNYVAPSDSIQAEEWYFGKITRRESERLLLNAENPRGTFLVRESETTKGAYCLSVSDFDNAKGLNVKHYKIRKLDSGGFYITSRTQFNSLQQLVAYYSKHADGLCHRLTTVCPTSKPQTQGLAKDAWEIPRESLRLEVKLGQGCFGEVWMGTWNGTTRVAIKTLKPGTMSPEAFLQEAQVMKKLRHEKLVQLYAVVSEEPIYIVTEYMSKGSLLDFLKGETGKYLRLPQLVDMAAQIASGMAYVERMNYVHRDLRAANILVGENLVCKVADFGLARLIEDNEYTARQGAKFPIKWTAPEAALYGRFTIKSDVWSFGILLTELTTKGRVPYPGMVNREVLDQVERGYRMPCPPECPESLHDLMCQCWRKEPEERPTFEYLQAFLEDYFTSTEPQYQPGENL

T3 sequence (P15056 whole entry): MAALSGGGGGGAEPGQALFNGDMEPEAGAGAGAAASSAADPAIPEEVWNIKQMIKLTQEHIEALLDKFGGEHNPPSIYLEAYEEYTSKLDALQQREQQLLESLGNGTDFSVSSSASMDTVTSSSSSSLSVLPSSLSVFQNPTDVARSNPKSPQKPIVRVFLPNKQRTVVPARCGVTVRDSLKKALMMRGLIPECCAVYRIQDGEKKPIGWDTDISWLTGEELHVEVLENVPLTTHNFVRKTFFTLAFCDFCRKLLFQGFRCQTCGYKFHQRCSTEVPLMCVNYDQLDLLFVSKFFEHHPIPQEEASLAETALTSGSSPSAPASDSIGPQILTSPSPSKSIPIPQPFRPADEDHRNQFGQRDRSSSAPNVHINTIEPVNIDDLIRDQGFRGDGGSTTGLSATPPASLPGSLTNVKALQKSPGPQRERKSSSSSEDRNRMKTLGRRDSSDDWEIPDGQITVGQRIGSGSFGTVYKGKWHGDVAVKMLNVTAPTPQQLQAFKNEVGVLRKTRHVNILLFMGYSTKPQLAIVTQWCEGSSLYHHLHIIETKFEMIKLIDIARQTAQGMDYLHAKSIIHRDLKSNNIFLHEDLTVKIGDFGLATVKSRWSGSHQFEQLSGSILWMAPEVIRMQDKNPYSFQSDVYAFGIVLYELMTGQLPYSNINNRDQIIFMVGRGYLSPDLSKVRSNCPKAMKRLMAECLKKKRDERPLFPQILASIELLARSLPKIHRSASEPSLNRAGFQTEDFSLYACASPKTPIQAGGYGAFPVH
T5 sequence (P04049 whole entry): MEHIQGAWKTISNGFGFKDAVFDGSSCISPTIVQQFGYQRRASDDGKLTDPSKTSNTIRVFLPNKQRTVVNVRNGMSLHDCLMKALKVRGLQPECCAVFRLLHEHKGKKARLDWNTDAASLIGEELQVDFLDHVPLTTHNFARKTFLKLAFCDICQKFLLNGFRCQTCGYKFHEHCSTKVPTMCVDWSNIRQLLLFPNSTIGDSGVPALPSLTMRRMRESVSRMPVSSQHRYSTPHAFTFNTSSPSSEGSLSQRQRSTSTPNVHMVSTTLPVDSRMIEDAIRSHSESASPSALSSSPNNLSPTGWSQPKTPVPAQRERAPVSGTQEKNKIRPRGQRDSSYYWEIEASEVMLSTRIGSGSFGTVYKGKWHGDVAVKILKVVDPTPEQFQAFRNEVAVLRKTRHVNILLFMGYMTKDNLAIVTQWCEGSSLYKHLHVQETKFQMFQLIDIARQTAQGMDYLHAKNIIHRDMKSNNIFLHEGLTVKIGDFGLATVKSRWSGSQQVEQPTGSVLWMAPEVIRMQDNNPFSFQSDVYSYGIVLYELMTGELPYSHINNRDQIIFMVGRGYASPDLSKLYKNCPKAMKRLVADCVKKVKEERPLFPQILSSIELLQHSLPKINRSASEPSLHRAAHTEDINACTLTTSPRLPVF
T6 sequence (Q05397 411-686): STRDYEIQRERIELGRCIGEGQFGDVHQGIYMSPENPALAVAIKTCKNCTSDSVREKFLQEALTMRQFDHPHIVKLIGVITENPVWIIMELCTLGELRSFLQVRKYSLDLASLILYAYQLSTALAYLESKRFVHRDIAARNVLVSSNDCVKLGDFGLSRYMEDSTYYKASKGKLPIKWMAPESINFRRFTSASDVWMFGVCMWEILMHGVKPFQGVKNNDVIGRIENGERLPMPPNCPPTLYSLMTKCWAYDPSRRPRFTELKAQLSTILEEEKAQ
T2 sequence (Q14289 whole entry): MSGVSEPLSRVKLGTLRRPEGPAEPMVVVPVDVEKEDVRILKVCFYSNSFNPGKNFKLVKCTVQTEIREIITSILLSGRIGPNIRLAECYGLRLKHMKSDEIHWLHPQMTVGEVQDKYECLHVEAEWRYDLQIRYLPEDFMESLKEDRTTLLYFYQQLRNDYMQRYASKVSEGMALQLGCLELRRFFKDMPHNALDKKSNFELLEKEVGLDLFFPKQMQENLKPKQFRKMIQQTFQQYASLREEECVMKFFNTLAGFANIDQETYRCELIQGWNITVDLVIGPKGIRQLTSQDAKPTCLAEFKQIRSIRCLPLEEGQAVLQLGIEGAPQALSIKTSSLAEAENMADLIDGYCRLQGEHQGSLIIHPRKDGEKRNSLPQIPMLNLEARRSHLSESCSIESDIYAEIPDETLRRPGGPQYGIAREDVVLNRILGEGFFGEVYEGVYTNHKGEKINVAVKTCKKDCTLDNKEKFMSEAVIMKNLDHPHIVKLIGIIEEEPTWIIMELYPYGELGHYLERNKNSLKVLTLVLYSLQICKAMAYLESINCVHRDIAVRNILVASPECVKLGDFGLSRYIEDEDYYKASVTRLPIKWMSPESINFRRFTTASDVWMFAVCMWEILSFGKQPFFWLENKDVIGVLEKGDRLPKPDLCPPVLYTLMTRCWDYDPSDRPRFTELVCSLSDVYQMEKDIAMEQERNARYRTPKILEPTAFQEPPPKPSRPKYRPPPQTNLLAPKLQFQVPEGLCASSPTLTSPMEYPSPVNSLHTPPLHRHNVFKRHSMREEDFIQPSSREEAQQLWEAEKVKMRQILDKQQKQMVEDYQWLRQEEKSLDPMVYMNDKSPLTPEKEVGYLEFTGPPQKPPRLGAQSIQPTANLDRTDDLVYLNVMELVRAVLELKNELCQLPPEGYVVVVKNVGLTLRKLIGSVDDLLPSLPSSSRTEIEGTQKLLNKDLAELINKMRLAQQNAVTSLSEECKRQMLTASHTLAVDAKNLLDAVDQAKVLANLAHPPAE
T7 sequence (P11362 458-765 C488A/C584S): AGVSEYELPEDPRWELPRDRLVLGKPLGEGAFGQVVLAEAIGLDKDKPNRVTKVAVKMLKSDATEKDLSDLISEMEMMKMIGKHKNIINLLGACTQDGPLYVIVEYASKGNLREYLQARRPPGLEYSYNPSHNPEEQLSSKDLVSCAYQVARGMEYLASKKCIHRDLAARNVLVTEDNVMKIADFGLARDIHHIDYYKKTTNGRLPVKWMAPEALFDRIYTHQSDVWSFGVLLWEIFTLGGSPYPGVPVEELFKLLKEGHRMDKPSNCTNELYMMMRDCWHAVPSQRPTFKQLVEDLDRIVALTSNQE
T4 sequence (P15056 with tags, fused parts or gaps V600E): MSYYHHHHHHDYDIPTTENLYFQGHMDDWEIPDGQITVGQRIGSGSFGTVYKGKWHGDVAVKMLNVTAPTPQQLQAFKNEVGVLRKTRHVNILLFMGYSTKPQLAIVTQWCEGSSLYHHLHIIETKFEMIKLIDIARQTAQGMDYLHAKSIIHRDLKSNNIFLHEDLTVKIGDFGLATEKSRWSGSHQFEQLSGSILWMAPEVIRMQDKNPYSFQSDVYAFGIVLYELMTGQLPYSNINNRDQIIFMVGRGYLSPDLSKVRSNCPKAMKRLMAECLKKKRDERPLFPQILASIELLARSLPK
T10 sequence (P45983 whole entry): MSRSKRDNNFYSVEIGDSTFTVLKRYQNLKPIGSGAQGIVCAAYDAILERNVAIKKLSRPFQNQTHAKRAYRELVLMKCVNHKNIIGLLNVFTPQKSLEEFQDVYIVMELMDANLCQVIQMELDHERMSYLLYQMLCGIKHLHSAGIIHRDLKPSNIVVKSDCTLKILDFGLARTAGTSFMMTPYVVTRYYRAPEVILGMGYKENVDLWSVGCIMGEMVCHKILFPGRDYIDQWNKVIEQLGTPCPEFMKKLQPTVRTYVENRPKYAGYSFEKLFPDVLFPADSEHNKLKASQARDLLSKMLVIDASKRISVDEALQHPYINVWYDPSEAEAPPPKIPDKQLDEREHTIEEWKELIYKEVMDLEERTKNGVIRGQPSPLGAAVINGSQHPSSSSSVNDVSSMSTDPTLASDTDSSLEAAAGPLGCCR
T11 sequence (P10721 with tags, fused parts or gaps): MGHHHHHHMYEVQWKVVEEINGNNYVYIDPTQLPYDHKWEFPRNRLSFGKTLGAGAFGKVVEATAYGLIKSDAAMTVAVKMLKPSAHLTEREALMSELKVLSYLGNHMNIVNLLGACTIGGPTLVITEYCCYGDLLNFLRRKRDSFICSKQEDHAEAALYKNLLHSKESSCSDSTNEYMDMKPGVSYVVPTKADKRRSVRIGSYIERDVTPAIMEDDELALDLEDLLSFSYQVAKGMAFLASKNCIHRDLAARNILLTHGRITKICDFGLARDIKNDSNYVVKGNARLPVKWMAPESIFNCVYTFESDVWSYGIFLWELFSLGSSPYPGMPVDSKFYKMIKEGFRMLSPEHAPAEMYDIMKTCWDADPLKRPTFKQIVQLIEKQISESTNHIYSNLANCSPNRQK

Structure (SMILES)	pIC50 (Jnk3)	pIC50 (Pyk2)	pIC50 (B-Raf)	pIC50 (B-Raf V600E)	pIC50 (c-Raf-1)	pIC50 (Fak)	pIC50 (FGFR1)	pIC50 (Flt1)	pIC50 (Fms)	pIC50 (Jnk1)	pIC50 (Kit)	pIC50 (Kdr)	pIC50 (Ret)	pIC50 (Src)
CCCC(=O)Nc1ccc(F)c(C(=O)c2c[nH]c3ncc(-c4cccc(C(N)=O)c4)cc23)c1F [Compound P-1365]	–	≥ 5.00	≥ 5.00	≥ 5.00	≥ 5.00	≥ 5.00	≥ 5.00	≥ 5.00	≥ 5.00	≥ 5.00	≥ 5.00	–	–	–
CCCS(=O)(=O)Nc1ccc(F)c(Cc2c[nH]c3ncc(OC)cc23)c1F [Compound P-1316]	–	≥ 5.00	–	≥ 5.00	≥ 5.00	≥ 5.00	≥ 5.00	–	≥ 5.00	–	≥ 5.00	–	–	≥ 5.00
CCCC(=O)Nc1ccc(F)c(C(=O)c2c[nH]c3ncc(OC)cc23)c1F [Compound P-1370]	–	≥ 5.00	–	≥ 5.00	–	–	–	≥ 5.00	≥ 5.00	≥ 5.00	≥ 5.00	–	–	–
CN(C)S(=O)(=O)Nc1ccc(F)c(C(=O)c2c[nH]c3ncc(-c4cccnc4)cc23)c1F [Compound P-0837, Dimethylamine-1-sulfonic acid [3-(5-pyridin-3-yl-1H-pyrrolo[2,3-b]pyridine-3-carbonyl)-2,4-difluoro-phenyl]-amide]	–	≥ 5.00	≥ 5.00	≥ 5.00	≥ 5.00	≥ 5.00	≥ 5.00	–	≥ 5.00	–	≥ 5.00	–	–	≥ 5.00
CC(C)S(=O)(=O)Nc1ccc(F)c(Cc2c[nH]c3ncc(Br)cc23)c1F [Compound P-0867, Propane-2-sulfonic acid [3-(5-bromo-1H-pyrrolo[2,3-b]pyridin-3-ylmethyl)-2,4-difluoro-phenyl]-amide]	–	≥ 5.00	≥ 5.00	≥ 5.00	≥ 5.00	≥ 5.00	≥ 5.00	–	≥ 5.00	–	≥ 5.00	–	–	–
CCCC(=O)Nc1ccc(F)c(Cc2c[nH]c3ncc(Br)cc23)c1F [Compound P-1282]	–	≥ 5.00	≥ 5.00	≥ 5.00	–	≥ 5.00	≥ 5.00	–	≥ 5.00	–	–	–	–	–
CCCS(=O)(=O)Nc1ccc(F)c(Cc2c[nH]c3ncc(Br)cc23)c1F [Compound P-0910, Propane-1-sulfonic acid [3-(5-bromo-1H-pyrrolo[2,3-b]pyridin-3-ylmethyl)-2,4-difluoro-phenyl]-amide]	–	≥ 5.00	≥ 5.00	≥ 5.00	≥ 5.00	≥ 5.00	≥ 5.00	–	–	–	≥ 5.00	–	–	≥ 5.00
CCCS(=O)(=O)Oc1ccc(F)c(C(=O)c2c[nH]c3ncc(Br)cc23)c1F [Compound P-0919, propane-1-sulfonic acid 3-(5-bromo-1H-pyrrolo[2,3-b]pyridine-3-carbonyl)-2,4-difluoro-phenyl ester]	–	≥ 5.00	≥ 5.00	≥ 5.00	≥ 5.00	–	≥ 5.00	–	≥ 5.00	–	≥ 5.00	–	–	–
CN(C)S(=O)(=O)Nc1ccc(F)c(C(=O)c2c[nH]c3ncc(Br)cc23)c1F [Compound P-0898, Dimethylamine-1-sulfonic acid [3-(5-bromo-1H-pyrrolo[2,3-b]pyridine-3-carbonyl)-2,4-difluoro-phenyl]-amide]	–	≥ 5.00	≥ 5.00	≥ 5.00	≥ 5.00	–	≥ 5.00	–	≥ 5.00	–	≥ 5.00	–	–	≥ 5.00
CCCS(=O)(=O)Nc1ccc(F)c(C(=O)c2c[nH]c3ncc(-c4cccc(OC)c4)cc23)c1F [Compound P-0874, Propane-1-sulfonic acid {2,4-difluoro-3-[5-(3-methoxy-phenyl)-1H-pyrrolo[2,3-b]pyridine-3-carbonyl]-phenyl}-amide]	–	≥ 5.00	≥ 5.00	≥ 5.00	≥ 5.00	–	≥ 5.00	–	≥ 5.00	–	≥ 5.00	–	–	≥ 5.00

Continued, values first:

pIC50 (Jnk3)	pIC50 (Pyk2)	pIC50 (B-Raf)	pIC50 (B-Raf V600E)	pIC50 (c-Raf-1)	pIC50 (Fak)	pIC50 (FGFR1)	pIC50 (Flt1)	pIC50 (Fms)	pIC50 (Jnk1)	pIC50 (Kit)	pIC50 (Kdr)	pIC50 (Ret)	pIC50 (Src)	Structure (SMILES)
≥ 5.00	≥ 5.00	–	–	–	–	–	–	–	–	–	–	–	–	Clc1ccccc1Nc1ccc2cc[nH]c2n1 [Compound P-1375, (2-Chloro-phenyl)-(1H-pyrrolo[2,3-b]pyridin-6-yl)-amine]
–	≥ 5.00	≥ 5.00	≥ 5.00	≥ 5.00	≥ 5.00	≥ 5.00	–	≥ 5.00	–	≥ 5.00	–	–	–	CCCS(=O)(=O)Nc1ccc(F)c(Cc2c[nH]c3ncc(-c4ccccc4)cc23)c1F [Compound P-0911, Propane-1-sulfonic acid [2,4-difluoro-3-(5-phenyl-1H-pyrrolo[2,3-b]pyridin-3-ylmethyl)-phenyl]-amide]
–	≥ 5.00	–	≥ 5.00	≥ 5.00	–	≥ 5.00	–	–	–	–	≥ 5.00	≥ 5.00	–	O=C(c1ccc(O)cc1Cl)c1c[nH]c2ncc(Br)cc12 [Compound P-0137]
≥ 5.00	≥ 5.00	≥ 5.00	–	–	–	≥ 5.00	–	–	–	≥ 5.00	–	≥ 5.00	–	COc1cccc(Cc2c[nH]c3ncc(-c4ccc(C(N)=O)cc4)cc23)c1 [Compound P-0697]
–	≥ 5.00	≥ 5.00	≥ 5.00	≥ 5.00	≥ 5.00	≥ 5.00	–	≥ 5.00	–	≥ 5.00	–	–	≥ 5.00	CCCS(=O)(=O)Nc1ccc(F)c(Cc2c[nH]c3ncc(Nc4ccccc4)cc23)c1F [Compound P-0818, Propane-1-sulfonic acid [2,4-difluoro-3-(5-phenylamino-1H-pyrrolo[2,3-b]pyridin-3-ylmethyl)-phenyl]-amide]
–	≥ 5.00	≥ 5.00	≥ 5.00	≥ 5.00	–	≥ 5.00	–	≥ 5.00	–	≥ 5.00	–	–	≥ 5.00	CN(C)S(=O)(=O)Nc1ccc(F)c(C(=O)c2c[nH]c3ncc(-c4ccccc4)cc23)c1F [Compound P-0857]
–	≥ 5.00	≥ 5.00	≥ 5.00	≥ 5.00	–	≥ 5.00	–	≥ 5.00	≥ 5.00	≥ 5.00	–	–	≥ 5.00	CCCS(=O)(=O)Nc1ccc(F)c(C(=O)c2c[nH]c3ncc(Nc4ccccc4)cc23)c1F [Compound P-0848, propane-1-sulfonic acid [2,4-difluoro-3-(5-phenylamino-1H-pyrrolo[2,3-b]pyridine-3-carbonyl)-phenyl]-amide]
